From US8895552B2, “Cyclic amide derivative” (Sumitomo Dainippon Pharma Co., Ltd., priority 2010, dated 2014)

Key:
[1] = target: T1, cortisone reductase (11βHSD1) (Mus musculus, UniProt P50172); test: Inhibitory activity assay against cortisone reductase of mouse primary adipocytes; type: cell-based; settings: differentiated primary adipocytes from visceral fat of ICR male mice, 100 nM [1,2-3H] cortisone, 37° C., read-out: IC50 against cortisone reductase of mouse adipose cell
T1 construct: host or cells: primary cells from visceral fat tissue of ICR male mice, differentiated to adipocytes in culture
Description: Experiment 2: Inhibitory Activity Assay Against Cortisone Reductase of Mouse Primary Adipocytes
The adipose tissues adhered to the mesenterium and around the testicle of ten ICR male mice (9 to 11 weeks old, Japan SLC Inc.) (hereinafter, referred to as visceral fat tissue) were soaked in about 100 mL of a phosphate buffer (0.20 g/L KCl, 0.20 g/L KH2PO4, 8.00 g/L NaCl, 2.16 g/L Na2HPO4.7H2O, 100 unit/ml penicillin (GIBCO), 100 μg/ml streptomycin (GIBCO), 250 ng/ml amphotericin (GIBCO)) and washed at room temperature.
The excised visceral fat tissues was cut finely in about 5×5 mm with scissors in Dulbecco's modified Eagle medium (about 50 ml, containing 4.5 g/L D-glucose and 584 mg/L L-glutamine, GIBCO) to which collagenase (Type II, Sigma), penicillin (GIBCO), streptomycin (GIBCO) and amphotericin (GIBCO) were added in an amount so that the final concentrations thereof are adjusted to 1 mg/ml, 100 unit/ml, 100 μg/ml and 250 ng/ml, respectively. Then, the mixture was shaken at 37° C. for 30 minutes (about 170 rpm), filtered through nylon mesh (80S [the pore size: 250 μm], SANSHIN INDUSTRIAL CO., LTD.), and the filtrate (cell suspension) was collected. This filtrate was centrifuged at 1800 rpm at room temperature for 5 minutes, and then, the liquid layer was removed stilly by decantation to give a precipitate. This precipitate was suspended in Dulbecco's modified Eagle medium (30 ml, containing 4.5 g/L D-glucose and 584 mg/L L-glutamine, GIBCO; hereinafter, occasionally referred to as FBS-containing medium), to which fetal bovine serum (hereinafter referred to as FBS, GIBCO), ascorbic acid (Wako Pure Chemical Industries, Ltd.), penicillin (GIBCO), streptomycin (GIBCO) and amphotericin (GIBCO) are added thereto in an amount so that the final concentrations thereof were adjusted to 10%, 200 μM, 100 units/ml, 100 μg/ml and 250 ng/ml, respectively, and then the suspension was filtered through a nylon mesh (420S [pore size: 25 μm], SANSHIN INDUSTRIAL CO., LTD.). The filtrate was collected, and centrifuged at 1800 rpm at room temperature for 5 minutes. The liquid layer was removed stilly by decantation, and the precipitate was suspended again in the FBS-containing medium (30 ml). This suspension was treated by the same procedure (centrifugation, removal of liquid layer, suspension in FBS-containing medium) two times more, and the suspension (90 ml) was prepared. This suspension was put into cell culture flasks (T150, for adhered cell culture, Iwaki Glass) in a each volume of 30 ml, and incubated at 37° C. in the presence of 5% CO2. At 5 to 6 hours after starting incubation, the medium was removed, and the wall of the flask was washed with the above-mentioned phosphate buffer (15 ml). The washing liquid was removed, and the washing procedure was repeated again, and the phosphate buffer was removed. To the flask was added FBS-containing medium (30 ml), and the mixture was incubated at 37° C. in the presence of 5% CO2. On Day 1 or Day 2 after the culture started, the medium was removed, and the wall of the flask was washed with the phosphate buffer (15 ml) once. To the flask was added a trypsin-ethylenediamine tetraacetate (hereinafter, referred to as trypsin-EDTA) solution (0.05% trypsin, 0.53 mM EDTA.4Na, GIBCO) in such a volume that the cells are duly soaked, and the mixture was allowed to stand at 37° C. for 5 minutes. To this mixture was added the FBS-containing medium in about 10-times volume of that of the trypsin-EDTA solution, and then the cell suspension was obtained.
The cells in the cell suspension were counted with a counting chamber, and the cell suspension was diluted with the FBS-containing medium so that the concentration of the cell was adjusted to 1.4×10^5 cells/ml. Thus obtained cell dilution was put into a 48-well plate (for adherent cell culture, Iwaki Glass) in an amount of 300 μl per well, and the plate was incubated at 37° C. in the presence of 5% CO2 for 1 to 2 day(s). […]

11βHSD1 = target: T2, 11βHSD1 (Homo sapiens, UniProt P28845); test: Inhibitory activity assay against cortisone reducing activity of cultured human adipocytes; type: cell-based; settings: differentiated normal human preadipocytes (HPrAD-vis), 100 nM [1,2-3H] cortisone, 37° C., read-out: IC50 against cortisone reducing activity of human adipose cell
T2 construct: host or cells: normal human visceral preadipocytes differentiated to adipocytes
Description: Experiment 1: Inhibitory Activity Assay Against Cortisone Reducing Activity of Cultured Human Adipocytes
Normal human preadipocytes (HPrAD-vis, manufactured by Cambrex corporation) were inoculated onto a 48-well cell culture plate, and the differentiation induction was carried out according to Protocol attached to the kit. The medium for the cells on the 9-11 days of the differentiation was changed to D-MEM medium (0.2 ml; manufactured by GIBCO) containing 100 nM [1,2-^3H] cortisone (1 μCi/well, manufactured by Muromachi Yakuhin), 0.5% dimethylsulfoxide and a test compound (for test compound treated group, or dimethylsulfoxide only for the no-test compound treated group). The plate was incubated at 37° C. for 3 hours, and then the whole medium was collected. As a background group, the medium without cell was used. The medium was mixed with ethyl acetate (0.1 ml) in an Eppendorf tube. This mixture was voltexed, and then further centrifuged at 5,000 rpm for one minute at room temperature to separate the ethyl acetate (the upper layer). The ethyl acetate (10 μl) was spotted on an aluminium plate for thin layer chromatography (silica gel 60 angstrom, Merck & Co., Inc., hereinafter referred to as TLC plate). The developing solvent (chloroform/methanol (90:10, v/v)) was put into a sealed vessel, and the TLC plate was developed, and then dried at room temperature. An imaging plate (TR-2040, Fujifilm) was exposed onto the dried TLC plate for 16 hours or more. After the exposure was completed, the imaging plate was analyzed by Bioimage Analyzer (BAS2500, Fujifilm), and the [^3H] radioactivity was measured at the corresponding position of cortisol developed on the TLC plate. The inhibitory activity of a test compound against cortisone reducing activity was calculated according to the following equation. (inhibitory activity(%))=100×((group without test compound)−(group with test compound))/((group without test compound)−(background group))
The IC50 value was calculated by linear regression of logarithmic value of the concentration of test compound and the inhibitory activity value, using the data at 2 points showing around 50% of the inhibitory activity. […] The IC50 value of the following compounds of the present invention against cortisone reducing activity of human adipose cell was determined.

T2 sequence (P28845 whole entry): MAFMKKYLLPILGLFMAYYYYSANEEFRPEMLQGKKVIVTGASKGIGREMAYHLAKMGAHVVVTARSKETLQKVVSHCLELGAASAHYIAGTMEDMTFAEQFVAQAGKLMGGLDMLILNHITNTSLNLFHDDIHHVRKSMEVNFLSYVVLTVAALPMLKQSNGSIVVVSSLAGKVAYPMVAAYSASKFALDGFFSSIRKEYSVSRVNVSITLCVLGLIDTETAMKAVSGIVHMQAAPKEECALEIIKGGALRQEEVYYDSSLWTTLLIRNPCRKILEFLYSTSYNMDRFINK
T1 sequence (P50172 whole entry): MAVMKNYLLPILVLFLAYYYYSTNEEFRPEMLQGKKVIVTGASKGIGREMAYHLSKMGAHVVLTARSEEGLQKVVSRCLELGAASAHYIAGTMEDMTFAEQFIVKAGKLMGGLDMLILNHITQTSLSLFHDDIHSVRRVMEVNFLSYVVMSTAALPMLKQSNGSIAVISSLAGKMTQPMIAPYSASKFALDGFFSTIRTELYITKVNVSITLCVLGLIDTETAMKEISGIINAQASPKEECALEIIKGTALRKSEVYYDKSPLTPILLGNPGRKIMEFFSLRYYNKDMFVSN

| IC50 [1] [nM] | IC50 (11βHSD1) [nM] | SMILES |
| --- | --- | --- |
| 11.1 | – | Cc1cc(C(=O)C2CCOCC2)sc1C(=O)N[C@H]1C2CC3CC1C[C@](O)(C3)C2 [Example 9] |
| 11.7 | – | Cc1cc(C(=O)c2cccs2)sc1C(=O)NC1C2CC3CC1CC(O)(C3)C2 (stereo not drawn) [Example 10] |
| 5.1 | 4.3 | Cc1cc(C(=O)c2cccn2C)sc1C(=O)NC1C2CC3CC1CC(O)(C3)C2 (stereo not drawn) [Example 11] |
| – | 16 | Cn1cccc1C(=O)c1ccc(C(=O)N[C@H]2C3CC4CC2C[C@](O)(C4)C3)c(Cl)c1 [Example 53] |
| 4.8 | – | COc1cc(C(=O)c2cccn2C)ccc1C(=O)NC1C2CC3CC1CC(O)(C3)C2 (stereo not drawn) [Example 55] |
| – | < 3 | Cc1cc(C(=O)c2ccccc2)n(C)c1C(=O)N[C@H]1C2CC3CC1C[C@](O)(C3)C2 [Example 62] |
| – | < 3 | CCCc1cc(C(=O)c2cccn2C)ccc1C(=O)NC1C2CC3CC1CC(O)(C3)C2 (stereo not drawn) [Example 424] |
| 18.4 | – | CCc1cc(C(=O)c2cccn2C)n(C)c1C(=O)NC1C2CC3CC1CC(O)(C3)C2 (stereo not drawn) [Example 485] |
| – | 4.2 | CCc1cc(C(=O)c2cccc(F)c2F)n(C)c1C(=O)NC1C2CC3CC1CC(O)(C3)C2 (stereo not drawn) [Example 488] |
| – | < 3 | CCc1cc(C(=O)c2ccc(C)s2)n(C)c1C(=O)NC1C2CC3CC1CC(O)(C3)C2 (stereo not drawn) [Example 499] |

The remaining lines, values behind:

| SMILES | IC50 [1] [nM] | IC50 (11βHSD1) [nM] |
| --- | --- | --- |
| O=C(c1ccc(C(=O)NC2C3CC4CC2CC(O)(C4)C3)c(Cl)c1)c1ccccc1F (stereo not drawn) [Example 16] | – | 3.6 |
| COCc1cc(C(=O)c2ccccc2)ccc1C(=O)N[C@H]1C2CC3CC1C[C@](O)(C3)C2 [Example 51] | – | < 3 |
| O=C(Cc1ccccc1)c1ccc(C(=O)N[C@H]2C3CC4CC2C[C@](O)(C4)C3)c(Cl)c1 [Example 52] | – | 12 |
| CCc1cc(C(=O)c2ccc(F)cc2)ccc1C(=O)NC1C2CC3CC1CC(O)(C3)C2 (stereo not drawn) [Example 98] | – | 3 |
| CCOc1cc(C(=O)c2cc(F)ccc2F)ccc1C(=O)NC1C2CC3CC1CC(O)(C3)C2 (stereo not drawn) [Example 258] | 3.2 | – |
| CCn1nccc1C(=O)c1ccc(C(=O)NC2C3CC4CC2CC(O)(C4)C3)c(COC)c1 (stereo not drawn) [Example 368] | – | 3.7 |
| COCc1cc(C(=O)c2ccccn2)ccc1C(=O)NC1C2CC3CC1CC(O)(C3)C2 (stereo not drawn) [Example 429] | – | 9.5 |
| COCc1cc(C(=O)c2ccccc2)n(C)c1C(=O)N[C@H]1C2CC3CC1C[C@](O)(C3)C2 [Example 440, 5-Benzoyl-N-[(E)-5-hydroxyadamantan-2-yl]-3-(methoxymethyl)-1-methyl-1H-pyrrole-2-carboxamide] | – | < 3 |
| COCCc1cc(C(=O)c2ccccc2F)ccc1C(=O)N[C@H]1C2CC3CC1C[C@](O)(C3)C2 [Example 443, 4-(2-Fluorobenzoyl)-N-[(E)-5-hydroxyadamantan-2-yl]-2-(2-methoxyethyl)benzamide] | – | 1.4 |
| CCc1cc(C(=O)c2cccc(OC)c2F)n(C)c1C(=O)NC1C2CC3CC1CC(O)(C3)C2 (stereo not drawn) [Example 486] | – | 2.8 |
| CCc1cc(C(=O)c2c(F)cccc2F)n(C)c1C(=O)NC1C2CC3CC1CC(O)(C3)C2 (stereo not drawn) [Example 487] | 25 | – |
| CCc1cc(C(=O)C2(c3ccccc3)CCC2)n(C)c1C(=O)NC1C2CC3CC1CC(O)(C3)C2 (stereo not drawn) [Example 504] | – | 7.3 |
| CCc1cc(C(=O)C(C)(C)c2ccccc2)n(C)c1C(=O)NC1C2CC3CC1CC(O)(C3)C2 (stereo not drawn) [Example 505] | 9.6 | – |
| Cn1c(C(=O)c2ccccc2F)cc(Cl)c1C(=O)NC1C2CC3CC1CC(O)(C3)C2 (stereo not drawn) [Example 514] | 20.7 | – |
| Cn1c(C(=O)c2cccc(F)c2)cc(Cl)c1C(=O)NC1C2CC3CC1CC(O)(C3)C2 (stereo not drawn) [Example 515] | – | 1.5 |
| Cn1c(C(=O)c2ccc(F)cc2)cc(Cl)c1C(=O)NC1C2CC3CC1CC(O)(C3)C2 (stereo not drawn) [Example 516] | – | < 3 |
